Experimental data from ChEMBL document CHEMBL1821719, “2,7-disubstituted-pyrrolo[2,1-f][1,2,4]triazines: new variant of an old template and application to the discovery of anaplastic lymphoma kinase (ALK) inhibitors with in vivo antitumor activity” (J Med Chem, 2011).
Each block holds one molecule with its values, some of them ahead of it.

Legend:
[1] = biological target: ALK tyrosine kinase receptor (Homo sapiens, UniProt Q9UM73); experiment: Inhibition of human recombinant ALK assessed as phosphorylated product using PLC-gamma/GST substrate by modified ELISA method
Insulin receptor = Insulin receptor (Homo sapiens, UniProt P06213); experiment: Inhibition of IR
[2] = biological target: NPM/ALK (Nucleophosmin/ALK tyrosine kinase receptor) (Homo sapiens, UniProt Q9UM73); experiment: Inhibition of NPM/ALK phosphorylation in human KARPAS299 cells by ELISA; format: cell-based, KARPAS-299
[3] = Oral bioavailability in Sprague-Dawley rat; format: ADME, organism-based; details: in vivo
[4] = Antitumor activity against human SUP-M2 cells xenografted into SCID mouse at 30 mg/kg, po bid; format: functional; details: read-out: TGI
[5] = Antitumor activity against human SUP-M2 cells xenografted into SCID mouse at 55 mg/kg, po administered bid; format: functional; details: read-out: TGI
Mus musculus [6] = experiment: Toxicity in SCID mouse assessed as weight loss at 10 mg/kg, po bid; format: organism-based; parameters: dose 10 mg/kg, route oral; details: in vivo
Mus musculus [7] = experiment: Toxicity in SCID mouse assessed as weight loss at 30 mg/kg, po bid; format: organism-based; parameters: dose 30 mg/kg, route oral; details: in vivo
Mus musculus [8] = experiment: Toxicity in SCID mouse assessed as weight loss at 55 mg/kg, po bid; format: organism-based; parameters: dose 55 mg/kg, route oral; details: in vivo
[9] = AUC in SCID mouse at 10 mg/kg, po; format: ADME, organism-based; parameters: dose 10 mg/kg, route oral; details: plasma
[10] = AUC in Sprague-Dawley rat at 5 mg/kg, po; format: ADME, organism-based; parameters: dose 5 mg/kg, route oral; details: plasma
[11] = Oral bioavailability in SCID mouse at 10 mg/kg; format: ADME, organism-based; details: in vivo
[12] = Oral bioavailability in Sprague-Dawley rat at 5 mg/kg; format: ADME, organism-based; details: in vivo
[13] = Inhibition of NPM-ALK phosphorylation in SUP-M2 cells xenografted in SCID mouse at 30 mg/kg, po measured upto 12 hrs by immunoblotting; format: functional; details: SUP-M2, 12 h
[14] = Drug level in human SUP-M2 cells xenografted SCID mouse tumor at 30 mg/kg, po after 2 hrs by LC/MS analysis; format: ADME, organism-based, Neoplasm; parameters: dose 30 mg/kg, route oral; details: read-out: Drug uptake
[15] = Drug level in human SUP-M2 cells xenografted SCID mouse tumor at 30 mg/kg, po after 6 hrs by LC/MS analysis; format: ADME, organism-based, Neoplasm; parameters: dose 30 mg/kg, route oral; details: read-out: Drug uptake
[16] = Drug level in human SUP-M2 cells xenografted SCID mouse tumor at 30 mg/kg, po after 12 hrs by LC/MS analysis; format: ADME, organism-based, Neoplasm; parameters: dose 30 mg/kg, route oral; details: read-out: Drug uptake
[17] = Drug level in human SUP-M2 cells xenografted SCID mouse tumor at 30 mg/kg, po after 24 hrs by LC/MS analysis; format: ADME, organism-based, Neoplasm; parameters: dose 30 mg/kg, route oral; details: read-out: Drug uptake
[18] = Plasma concentration in human SUP-M2 cells xenografted SCID mouse at 30 mg/kg, po measured after 2 hrs by LC/MS analysis; format: ADME, organism-based; parameters: dose 30 mg/kg, route oral
[19] = Plasma concentration in human SUP-M2 cells xenografted SCID mouse at 30 mg/kg, po measured after 6 hrs by LC/MS analysis; format: ADME, organism-based; parameters: dose 30 mg/kg, route oral
[20] = Plasma concentration in human SUP-M2 cells xenografted SCID mouse at 30 mg/kg, po measured after 12 hrs by LC/MS analysis; format: ADME, organism-based; parameters: dose 30 mg/kg, route oral
[21] = Plasma concentration in human SUP-M2 cells xenografted SCID mouse at 30 mg/kg, po measured after 24 hrs by LC/MS analysis; format: ADME, organism-based; parameters: dose 30 mg/kg, route oral
[22] = Drug level in human SUP-M2 cells xenografted SCID mouse tumor at 10 mg/kg, po bid for 12 days measured after 2 hrs of final dose by LC/MS analysis; format: ADME, organism-based, Neoplasm; parameters: dose 10 mg/kg, route oral; details: read-out: Drug uptake
[23] = Drug level in human SUP-M2 cells xenografted SCID mouse tumor at 30 mg/kg, po bid for 12 days measured after 2 hrs of final dose by LC/MS analysis; format: ADME, organism-based, Neoplasm; parameters: dose 30 mg/kg, route oral; details: read-out: Drug uptake
[24] = Plasma concentration in human SUP-M2 cells xenografted SCID mouse at 10 mg/kg, po bid for 12 days measured after 2 hrs of final dose by LC/MS analysis; format: ADME, organism-based; parameters: dose 10 mg/kg, route oral
[25] = Plasma concentration in human SUP-M2 cells xenografted SCID mouse at 30 mg/kg, po bid for 12 days measured after 2 hrs of final dose by LC/MS analysis; format: ADME, organism-based; parameters: dose 30 mg/kg, route oral
[26] = Plasma concentration in human SUP-M2 cells xenografted SCID mouse at 55 mg/kg, po bid for 12 days measured after 2 hrs of final dose by LC/MS analysis; format: ADME, organism-based; parameters: dose 55 mg/kg, route oral
[27] = Antitumor activity against human SUP-M2 cells xenografted into SCID mouse at 10 mg/kg, po bid; format: functional; details: read-out: TGI
KARPAS-299 = experiment: Antiproliferative activity against human KARPAS299 cells by MTS assay; format: functional, cell-based
[28] = Antiproliferative activity against human SUP-M2 cells after 48 hrs by MTS assay; format: functional, cell-based; details: SUP-M2, 48 h
[29] = Apparent permeability from apical to basolateral side of human Caco2 cells; format: ADME, cell-based; details: Caco-2
[30] = Volume of distribution in SCID mouse at 1 mg/kg, iv; format: ADME, organism-based; parameters: dose 1 mg/kg, route intravenous; details: in vivo
[31] = Volume of distribution in Sprague-Dawley rat at 1 mg/kg, iv; format: ADME, organism-based; parameters: dose 1 mg/kg, route intravenous; details: in vivo
[32] = AUC in SCID mouse at 1 mg/kg, iv; format: ADME, organism-based; parameters: dose 1 mg/kg, route intravenous; details: plasma
[33] = AUC in Sprague-Dawley rat at 1 mg/kg, iv; format: ADME, organism-based; parameters: dose 1 mg/kg, route intravenous; details: plasma
[34] = Tmax in SCID mouse at 10 mg/kg, po; format: ADME, organism-based; parameters: dose 10 mg/kg, route oral; details: in vivo
[35] = Tmax in Sprague-Dawley rat at 5 mg/kg, po; format: ADME, organism-based; parameters: dose 5 mg/kg, route oral; details: in vivo

Sequence of Insulin receptor (P06213 28-758 limits assumed): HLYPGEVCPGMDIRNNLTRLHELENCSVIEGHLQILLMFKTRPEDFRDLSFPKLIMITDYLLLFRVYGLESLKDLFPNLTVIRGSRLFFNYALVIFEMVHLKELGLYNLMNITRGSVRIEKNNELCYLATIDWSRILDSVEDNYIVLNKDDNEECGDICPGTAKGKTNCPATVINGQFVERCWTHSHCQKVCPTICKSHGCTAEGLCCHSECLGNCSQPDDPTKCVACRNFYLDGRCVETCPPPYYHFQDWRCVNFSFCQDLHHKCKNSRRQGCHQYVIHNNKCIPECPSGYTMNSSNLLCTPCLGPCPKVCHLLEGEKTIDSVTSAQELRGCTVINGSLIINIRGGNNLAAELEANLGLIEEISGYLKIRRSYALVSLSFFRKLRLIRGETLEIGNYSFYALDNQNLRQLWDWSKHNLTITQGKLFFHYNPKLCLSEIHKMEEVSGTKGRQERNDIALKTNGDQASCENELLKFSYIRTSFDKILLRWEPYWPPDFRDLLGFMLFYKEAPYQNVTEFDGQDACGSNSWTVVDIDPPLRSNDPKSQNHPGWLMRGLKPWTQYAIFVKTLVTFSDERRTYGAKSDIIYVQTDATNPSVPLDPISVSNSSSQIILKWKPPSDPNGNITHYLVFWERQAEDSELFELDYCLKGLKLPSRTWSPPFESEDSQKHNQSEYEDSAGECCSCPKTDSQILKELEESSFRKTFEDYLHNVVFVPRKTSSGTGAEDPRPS
Sequence of Insulin receptor (P06213 763-1382 limits assumed): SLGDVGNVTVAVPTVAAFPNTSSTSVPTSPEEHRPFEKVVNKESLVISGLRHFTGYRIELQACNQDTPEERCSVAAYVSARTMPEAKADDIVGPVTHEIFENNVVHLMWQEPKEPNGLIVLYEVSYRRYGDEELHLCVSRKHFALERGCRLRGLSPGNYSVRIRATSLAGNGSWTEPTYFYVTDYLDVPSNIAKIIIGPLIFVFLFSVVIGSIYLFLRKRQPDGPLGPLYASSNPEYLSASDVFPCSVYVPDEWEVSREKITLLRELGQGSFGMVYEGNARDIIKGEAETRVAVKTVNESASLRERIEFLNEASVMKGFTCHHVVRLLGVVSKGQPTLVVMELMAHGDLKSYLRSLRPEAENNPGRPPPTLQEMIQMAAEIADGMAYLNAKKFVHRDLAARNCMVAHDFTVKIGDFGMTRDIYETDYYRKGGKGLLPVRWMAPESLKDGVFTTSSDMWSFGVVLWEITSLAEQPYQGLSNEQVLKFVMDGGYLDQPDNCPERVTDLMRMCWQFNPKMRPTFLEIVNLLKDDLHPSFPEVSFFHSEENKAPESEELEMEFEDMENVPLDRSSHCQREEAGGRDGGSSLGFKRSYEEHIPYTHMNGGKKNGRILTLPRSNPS
Sequence of NPM/ALK (Nucleophosmin/ALK tyrosine kinase receptor) (Q9UM73 whole entry): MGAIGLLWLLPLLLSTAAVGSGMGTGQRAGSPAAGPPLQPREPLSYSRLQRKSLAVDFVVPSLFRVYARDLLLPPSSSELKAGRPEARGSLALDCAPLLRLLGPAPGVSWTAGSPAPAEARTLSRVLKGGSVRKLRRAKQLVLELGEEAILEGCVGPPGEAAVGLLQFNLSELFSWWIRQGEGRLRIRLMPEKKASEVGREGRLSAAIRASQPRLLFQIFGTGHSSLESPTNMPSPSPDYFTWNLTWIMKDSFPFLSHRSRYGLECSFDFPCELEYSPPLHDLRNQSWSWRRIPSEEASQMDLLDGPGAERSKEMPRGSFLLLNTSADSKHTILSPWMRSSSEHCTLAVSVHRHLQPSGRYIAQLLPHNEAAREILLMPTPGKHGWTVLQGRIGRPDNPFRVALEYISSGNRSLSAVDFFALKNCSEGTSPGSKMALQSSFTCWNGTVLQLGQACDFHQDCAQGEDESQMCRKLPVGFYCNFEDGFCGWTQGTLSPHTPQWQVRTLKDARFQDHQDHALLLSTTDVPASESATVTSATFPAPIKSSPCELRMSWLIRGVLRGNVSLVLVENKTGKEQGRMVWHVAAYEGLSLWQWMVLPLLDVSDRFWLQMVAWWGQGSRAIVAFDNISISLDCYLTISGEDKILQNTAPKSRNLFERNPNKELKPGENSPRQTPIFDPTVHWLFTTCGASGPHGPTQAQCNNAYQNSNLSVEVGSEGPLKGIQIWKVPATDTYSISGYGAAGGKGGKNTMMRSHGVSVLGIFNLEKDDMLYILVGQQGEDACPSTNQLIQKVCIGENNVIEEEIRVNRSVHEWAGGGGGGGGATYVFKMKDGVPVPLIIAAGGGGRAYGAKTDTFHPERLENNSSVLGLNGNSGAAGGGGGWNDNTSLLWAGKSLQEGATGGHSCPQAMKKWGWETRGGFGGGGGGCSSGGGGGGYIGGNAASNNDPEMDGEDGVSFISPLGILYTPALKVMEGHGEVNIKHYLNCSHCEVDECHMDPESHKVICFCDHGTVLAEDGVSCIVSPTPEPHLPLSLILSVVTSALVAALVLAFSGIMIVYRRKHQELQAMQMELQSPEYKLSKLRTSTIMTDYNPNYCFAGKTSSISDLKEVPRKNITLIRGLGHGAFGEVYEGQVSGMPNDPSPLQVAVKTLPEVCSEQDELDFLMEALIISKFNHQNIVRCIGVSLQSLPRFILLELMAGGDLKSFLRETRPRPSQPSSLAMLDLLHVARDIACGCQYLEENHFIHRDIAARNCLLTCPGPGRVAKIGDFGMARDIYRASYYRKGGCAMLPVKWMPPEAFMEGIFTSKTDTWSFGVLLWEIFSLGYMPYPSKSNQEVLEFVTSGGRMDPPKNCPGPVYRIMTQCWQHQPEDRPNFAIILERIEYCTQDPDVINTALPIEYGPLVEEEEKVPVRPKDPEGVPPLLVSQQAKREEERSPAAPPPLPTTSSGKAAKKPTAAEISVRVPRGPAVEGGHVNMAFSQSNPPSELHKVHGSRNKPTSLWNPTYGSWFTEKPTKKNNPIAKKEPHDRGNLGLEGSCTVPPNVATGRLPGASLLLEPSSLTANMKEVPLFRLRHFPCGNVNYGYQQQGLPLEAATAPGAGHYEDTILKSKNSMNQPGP
Sequence of NPM/ALK (Nucleophosmin/ALK tyrosine kinase receptor) (P06748 whole entry, further chain): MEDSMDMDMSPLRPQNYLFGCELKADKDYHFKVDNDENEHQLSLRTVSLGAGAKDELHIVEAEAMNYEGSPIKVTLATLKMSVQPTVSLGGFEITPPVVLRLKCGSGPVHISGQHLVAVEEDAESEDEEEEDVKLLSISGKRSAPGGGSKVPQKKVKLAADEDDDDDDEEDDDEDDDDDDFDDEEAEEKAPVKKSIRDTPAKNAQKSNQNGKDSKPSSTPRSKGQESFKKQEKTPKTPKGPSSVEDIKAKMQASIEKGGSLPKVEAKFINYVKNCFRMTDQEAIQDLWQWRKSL
Sequence of ALK tyrosine kinase receptor (Q9UM73 whole entry): as the sequence (Q9UM73 whole entry) above

Structure (SMILES): CN1CCN(c2ccc(Nc3ncc4ccc(-c5ccccc5NS(C)(=O)=O)n4n3)cc2)CC1
IC50 [1]: 0.26 µM
IC50 (Insulin receptor): 1.87 µM

Structure (SMILES): COc1cc(N2CCN(C)CC2)ccc1Nc1ncc2ccc(-c3ccccc3OC)n2n1
IC50 [1]: 0.009 µM
IC50 (Insulin receptor): 0.391 µM
IC50 [2]: 0.1 µM

Structure (SMILES): COc1cc(N2CCN(C[C@H](C)O)CC2)ccc1Nc1ncc2ccc(-c3ccccc3OC)n2n1
IC50 [1]: 0.005 µM
IC50 (Insulin receptor): 0.206 µM
IC50 [2]: 0.1 µM
bioavailability [3]: 8%

Structure (SMILES): COc1cc(N2CCN(C[C@@H](C)O)CC2)ccc1Nc1ncc2ccc(-c3ccccc3OC)n2n1
IC50 [1]: 0.0038 µM
IC50 (Insulin receptor): 0.16 µM
IC50 [2]: 0.08 µM
bioavailability [3]: 6%

Structure (SMILES): COc1cc(N2CCN(N3CCOCC3)CC2)ccc1Nc1ncc2ccc(-c3ccccc3OC)n2n1
IC50 [1]: 0.009 µM
IC50 (Insulin receptor): 0.357 µM
IC50 [2]: 0.085 µM
bioavailability [3]: 34%
inhibition in vivo at 30 mg/kg [4]: 60%
inhibition in vivo at 55 mg/kg [5]: 98%
Activity (Mus musculus [6]): Non-toxic
Activity (Mus musculus [7]): Non-toxic
Activity (Mus musculus [8]): Non-toxic

Structure (SMILES): COc1cc(N2CCC(N3CCOCC3)CC2)ccc1Nc1ncc2ccc(-c3ccccc3N(C)S(C)(=O)=O)n2n1
IC50 [1]: 0.007 µM
IC50 (Insulin receptor): 0.809 µM
IC50 [2]: 0.05 µM
bioavailability [3]: 47%
inhibition in vivo at 30 mg/kg [4]: 50%
inhibition in vivo at 55 mg/kg [5]: 96%
Activity (Mus musculus [6]): Non-toxic
Activity (Mus musculus [7]): Non-toxic
Activity (Mus musculus [8]): Non-toxic

Further lines, with some results ahead:

IC50 [1]: 0.009 µM
IC50 (Insulin receptor): 0.934 µM
IC50 [2]: 0.2 µM
Structure (SMILES): COc1cc(N2CCN(C)CC2)ccc1Nc1ncc2ccc(-c3ccccc3N(C)S(C)(=O)=O)n2n1

AUC [9]: 2520 ng·h/mL
AUC [10]: 610 ng·h/mL
bioavailability [11]: 36%
bioavailability [12]: 38%
concentration at 2 h [14]: 1440 ng/g
concentration at 6 h [15]: 792 ng/g
concentration at 12 h [16]: 235 ng/g
concentration at 24 h [17]: < 30 ng/g
concentration at 2 h [18]: 2160 ng/mL
concentration at 6 h [19]: 950 ng/mL
concentration at 12 h [20]: 155 ng/mL
concentration at 24 h [21]: < 10 ng/mL
concentration at 2 h [22]: 1530 ng/g
concentration at 2 h [23]: 3120 ng/g
concentration at 2 h [24]: 516 ng/mL
concentration at 2 h [25]: 1580 ng/mL
concentration at 2 h [26]: 2890 ng/mL
bioavailability [3]: 38%
IC50 (KARPAS-299): 0.477 µM
Papp A→B [29]: 20.3 ×10⁻⁶ cm/s
Vd [30]: 2.1 L/kg
Vd [31]: 3.3 L/kg
AUC [32]: 661 ng·h/mL
AUC [33]: 343 ng·h/mL
Tmax [34]: 1 h
Tmax [35]: 2 h
Structure (SMILES): COc1cc(N2CCN(C[C@H](C)O)CC2)ccc1Nc1ncc2ccc(-c3ccccc3N(C)S(C)(=O)=O)n2n1
inhibition in vivo at 30 mg/kg [13]: 75%
inhibition in vivo at 10 mg/kg [27]: 35%
inhibition in vivo at 30 mg/kg [4]: 81%
inhibition in vivo at 55 mg/kg [5]: 98%
IC50 [28]: 0.087 µM

bioavailability [3]: 41%
Structure (SMILES): COc1cc(N2CCN(C[C@@H](C)O)CC2)ccc1Nc1ncc2ccc(-c3ccccc3N(C)S(C)(=O)=O)n2n1
